Test results as given in patent US11827628B2, “Compositions and methods for inhibition of the JAK pathway” (Rigel Pharmaceuticals, Inc., priority 2005, dated 2023).

Assays:
[1] = test system: IL-4 stimulated expression of CD23 in human Ramos B cells (JAK-1 and JAK-3); assay: Assay for Ramos B-Cell Line Stimulated with IL-4 (CD23 upregulation, FACS); assay type: cell-based; details: Homo sapiens, Ramos, Ramos B cells stimulated with IL-4, CD23 expression by FACS; read-out: IC50, Example 41
Procedure, shortened: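 Steps: Ramos B cells are suspended in RPMI with 5% serum, exposed to compound for 1 h at 37 °C, stimulated with IL-4 (final 50 units/mL) for 20-24 h, stained for CD23 and analysed by flow cytometry. IC50 is calculated.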

[2] = test system: up-regulation of ICAM-1 (CD54) by IFNγ in U937 human monocytic cells; assay: U937 IFNγ ICAM1 FACS Assay; assay type: cell-based; details: Homo sapiens, U-937, U937 cells stimulated with IFNγ, ICAM-1 expression by FACS; read-out: IC50, Example 44
Source text: The activity of the compounds of the invention may additionally be characterized by assaying the effect of the 2,4-substituted pyrimidinediamine compounds described herein on A549 lung epithelial cells and U937 cells. A549 lung epithelial cells and U937 cells up-regulate ICAM-1 (CD54) surface expression in response to a variety of different stimuli. Therefore, using ICAM-1 expression as readout, test compound effects on different signaling pathways can be assessed in the same cell type. Stimulation with IL-1β through the IL-1β receptor activates the TRAF6/NFκB pathway resulting in up-regulation of ICAM-1. IFNγ induces ICAM-1 up-regulation through activation of the JAK1/JAK2 pathway. The up-regulation of ICAM-1 can be quantified by flow cytometry across a compound dose curve and EC50, values are calculated.
U937 human monocytic cells up-regulate ICAM-1 (CD54) surface expression in response to a variety of different stimuli. Therefore, using ICAM-1 expression as readout, compound effects on different signaling pathways can be assessed in the same cell type. IFNγ up-regulates ICAM-1 through activation of the JAK/Stat pathway. In this example, the up-regulation of ICAM-1 by IFNγ was assessed.
The U937 human monocytic cell line was obtained from ATCC of Rockville Maryland, catalog number CRL-1593.2, and cultured in RPM1-1640 medium containing 10% (v/v) FCS. U937 cells were grown in 10% RPMI. The cells were then plated at a concentration of 100,000 cells per 160 μL in 96 well flat bottom plates. […] Then 4 μL of test compound was transferred to 76 μL of 10% RPMI resulting in a 10× solution (100 μM test compound, 5% DMSO). For control wells, 4 μL of DMSO was diluted into 76 μL 10% RPMI.
The assay was performed in duplicate with 8 points (8 3-fold dilution concentrations from […]) and with 4 wells of DMSO only (control wells) under stimulated conditions and 4 wells of DMSO only under unstimulated conditions.
The diluted compound plate was mixed 2× using a multimek (Beckman Coulter of Brea, California) and then 20 μL of the diluted compounds was transferred to the 96 well plate containing 160 μL of cells, which were then mixed again twice at low speeds. The cells and compounds were then pre-incubated for 30 minutes at 37° C. with 5% CO2.
The 10× stimulation mix was made by preparing a 100 ng/mL solution of human IFNγ in 10% RPMI. […] The cells were kept under conditions for stimulation for 18-24 hours at 37° C. with 5% CO2.
The cells were transferred to a 96 well round bottom plate for staining and then kept on ice for the duration of the staining procedure. Cells were spun down at 1000 rpm for 5 minutes at 4° C., following which the supernatant was removed. Following removal of the supernatant, 1 μL APC conjugated mouse anti-human ICAM-1 antibody was added per 100 μL FACS buffer. The cells were then incubated on ice in the dark for 30 minutes. Following incubation, […] of FACS buffer was added and the cells were centrifuged at 1000 rpm for 5 minutes at 4° C., following which the supernatant was removed. After removal of the supernatant, 200 μL of FACS buffer was added and the cells were resuspended. After suspension, the cells were centrifuged at 1000 rpm for 5 min at 4° C. Supernatant was then removed prior to resuspension of the cells in 150 μL FACS buffer.
Detection was performed using a BD LSR I System Flow Cytometer, purchased from BD Biosciences of San Jose, California The live cells were gated for live scatter and the geometric mean of ICAM-APC was measured (Becton-Dickinson CellQuest software version 3.3, Franklin Lakes, NJ). Both % live cells and ICAM-1 expression was analyzed. The assays for the test compounds were carried out in parallel with a control compound of known activity.

Structure (SMILES)	IC50 [1]	IC50 [2]
COc1ccc(Nc2nc(Nc3ccc(C)c(S(N)(=O)=O)c3)ncc2F)nc1N [VII-9, N2-(3-Aminosulfonyl-4-methylphenyl)-N4-[2-amino-3-methoxypyrid-6-yl]-5-fluoro-2,4-pyrimidinediamine]	246 nM	5350 nM
NS(=O)(=O)c1cccc(Nc2ncc(F)c(Nc3ccc(CCCCF)cc3)n2)c1 [VI-92, N2-(3-Aminosulfonylphenyl)-5-fluoro-N4-[4-(4-fluorobutyl)phenyl]-2,4-pyrimidinediamine]	83.5 nM	1160 nM
Cc1ccc2cc(Nc3nc(Nc4ccc(C)c(S(N)(=O)=O)c4)ncc3F)ccc2n1 [VII-71, N2-(3-Aminosulfonyl-4-methylphenyl)-5-fluoro-N4-(2-methylquinolin-6-yl)-2,4-pyrimidinediamine]	149 nM	
Cc1ccc(Nc2ncc(F)c(Nc3ccc(CO)cc3)n2)cc1S(N)(=O)=O [VI-52, N2-(3-Aminosulfonyl-4-methylphenyl)-5-fluoro-N4-(4-hydroxymethylphenyl)-2,4-pyrimidinediamine]	168 nM	1740 nM
Cc1ccc(Nc2ncc(F)c(Nc3cccc(-c4cnco4)c3)n2)cc1S(N)(=O)=O [IV-2, N2-(3-Aminosulfonyl-4-methylphenyl)-5-fluoro-N4-[3-(1,3-oxazol-5-yl)phenyl]-2,4-pyrimidinediamine]	80 nM	705 nM
Cc1ccc(Nc2ncc(F)c(Nc3ccc4c(c3)N(CC#N)C(=O)CS4)n2)cc1S(N)(=O)=O [Compound V-13, N2-(3-Aminosulphonyl4-methylphenyl)-5-fluoro-N4-(3-oxo-4-cyanomethyl-benzo[1,4]thiazin-6-yl)-2,4-pyrimidinediamine]	52.9 nM	1200 nM
CN1C(=O)CSc2ccc(Nc3nc(Nc4cccc(S(N)(=O)=O)c4)ncc3F)cc21 [VII-49, N2-(3-Aminosulfonylphenyl)-5-fluoro-N4-(4-methyl-3-oxo-benz[1,4]thiazin-6-yl)-2,4-pyrimidinediamine]	37.8 nM	577 nM
COc1ccc(Nc2nc(Nc3cccc(S(N)(=O)=O)c3)ncc2F)cc1Cl [VI-107, N2-(3-Aminosulfonylphenyl)-5-fluoro-N4-(4-methoxy-3-chlorophenyl]-2,4-pyrimidinediamine]	159 nM	856 nM
N#CCN1C(=O)COc2ccc(Nc3nc(Nc4cccc(S(N)(=O)=O)c4)ncc3F)cc21 [Compound V-7, N2-(3-Aminosulphonylphenyl)-5-fluoro-N4-(3-oxo-4-cyanomethyl-benz[1,4]oxazin-6-yl]-2,4-pyrimidinediamine]	58.8 nM	821 nM
Cc1ccc(Nc2ncc(F)c(Nc3ccc4c(c3)N(CC#N)C(=O)CO4)n2)cc1S(N)(=O)=O [Compound V-8, N2-(3-Aminosulphonyl-4-methylphenyl)-5-fluoro-N4-[3-oxo-4-cyanomethyl-benz[1,4]oxazin-6-yl]-2,4-pyrimidinediamine]	29.1 nM	620 nM
Cc1ccc(Nc2ncc(F)c(Nc3ccc(CCCF)cc3)n2)cc1S(N)(=O)=O [VI-84, N2-(3-Aminosulfonyl-4-methylphenyl)-5-fluoro-N4-[4-(3-fluoropropyl)phenyl]-2,4-pyrimidinediamine]	132 nM	
COc1ccc(Nc2nc(Nc3ccc(C(C)C)c(S(N)(=O)=O)c3)ncc2F)cc1Cl [VI-45, N2-(3-Aminosulfonyl-4-iso-propylphenyl)-N4-(3-chloro-4-methoxy-phenyl)-5-fluoro-2,4-pyrimidinediamine]	108 nM	
NS(=O)(=O)c1cccc(Nc2ncc(F)c(Nc3cccc(-c4cnco4)c3)n2)c1 [IV-1, N2-(3-Aminosulfonylphenyl)-5-fluoro-N4-[3-(1,3-oxazol-5-yl)phenyl]-2,4-pyrimidinediamine]	73.6 nM	272 nM
C#CCNc1ccc(Nc2nc(Nc3ccc(C)c(S(N)(=O)=O)c3)ncc2F)cc1 [VI-65, N2-(3-Aminosulfonyl-4-methylphenyl)-5-fluoro-N4-[4-(prop-2-ynylamino)phenyl]-2,4-pyrimidinediamine]	90.6 nM	964 nM
NS(=O)(=O)c1cccc(Nc2ncc(F)c(Nc3ccc(CCCF)cc3)n2)c1 [VI-83, N2-(3-Aminosulfonylphenyl)-5-fluoro-N4-[4-(3-fluoropropyl)phenyl]-2,4-pyrimidinediamine]	113 nM	535 nM
Cc1ccc(Nc2ncc(F)c(Nc3cccc4cccnc34)n2)cc1S(N)(=O)=O [VII-77, N2-(3-Aminosulfonyl-4-methylphenyl)-5-fluoro-N4-(quinolin-8-yl)-2,4-pyrimidinediamine]	124 nM	3540 nM
CN1C(=O)CSc2ccc(Nc3nc(Nc4ccc(S(N)(=O)=O)cc4)ncc3F)cc21 [VII-48, N2-(4-Aminosulfonylphenyl)-5-fluoro-N4-(4-methyl-3-oxo-benz[1,4]thiazin-6-yl)-2,4-pyrimidinediamine]	30.8 nM	660 nM
NS(=O)(=O)c1cccc(Nc2ncc(F)c(Nc3ccc4sccc4c3)n2)c1 [VII-58, N2-(3-Aminosulfonylphenyl)-N4-(benzothiophen-5-yl)-5-fluoro-2,4-pyrimidinediamine]	136 nM	1100 nM
C#CCOc1ccc(Nc2nc(Nc3ccc(C)c(S(N)(=O)=O)c3)ncc2F)cc1F [VI-60, N2-(3-Aminosulfonyl-4-methylphenyl)-5-fluoro-N4-[3-fluoro-4-(prop-2-ynyloxy)phenyl]-2,4-pyrimidinediamine]	86.9 nM	410 nM
Cc1ccc(Nc2ncc(F)c(Nc3ccc4c(CC#N)c[nH]c4c3)n2)cc1S(N)(=O)=O [IX-11, N2-(3-Aminosulfonyl-4-methylphenyl)-N4-(3-cyanomethyl-1H-indol-6-yl)-5-fluoro-2,4-pyrimidinediamine]	115 nM	2240 nM
NS(=O)(=O)c1ccc(Nc2ncc(F)c(Nc3ccc(CCCCO)cc3)n2)cc1 [VI-88, N2-(4-Aminosulfonylphenyl)-5-fluoro-N4-[4-(4-hydroxybutyl)phenyl]-2,4-pyrimidinediamine]	216 nM	
Cc1ccc(Nc2ncc(F)c(Nc3ccc4oc(C#N)cc4c3)n2)cc1S(N)(=O)=O [VII-53, N2-(3-Aminosulfonyl-4-methylphenyl)-N4-(2-cyanobenzofuran-5-yl)-5-fluoro-2,4-pyrimidinediamine]	168 nM	
C#CCOc1ccc(Nc2nc(Nc3ccc(C)c(S(N)(=O)=O)c3)ncc2F)cc1Cl [VI-59, N2-(3-Aminosulfonyl-4-methylphenyl)-N4-[3-chloro-4-(prop-2-ynyloxy)phenyl]-5-fluoro-2,4-pyrimidinediamine]	76 nM	
COc1c(C)cc(Nc2ncc(F)c(Nc3ccc(C(C)(C)C)cc3)n2)cc1S(N)(=O)=O [VI-37, N2-(3-Aminosulfonyl-4-methoxy-5-methylphenyl)-N4-(4-tert-butylphenyl)-5-fluoro-2,4-pyrimidinediamine]	69.2 nM	
NS(=O)(=O)c1ccc(Nc2ncc(F)c(Nc3ccc(CCCO)cc3)n2)cc1 [VI-85, N2-(4-Aminosulfonylphenyl)-5-fluoro-N4-[4-(3-hydroxypropyl)phenyl]-2,4-pyrimidinediamine]	129 nM	
